Experimental data taken from patent US20240067686A1, “NOVEL PEPTIDE CAPABLE OF INHIBITING TGF-ß SIGNALING AND USE THEREOF” (Korea Institute of Science and Technology, priority 2020, published 2024).

What was measured:
[1] = tested on: TGF-β cytokine released from Aspc1 cells; test: ELISA of TGF-β cytokine concentration in Aspc1 culture media; format: cell-based; details: 50 ng/ml TGF-β plus peptide, 48 hours, FIG. 6
Protocol: Specifically, the pancreatic cancer cell line Aspc1 was seeded in a 96-well plate at a density of 2×10^4 cells/well, cultured for one day, and then treated with 50 ng/ml of TGF-β or TGF-β plus inhibitor (candidate peptide and control peptide) for 48 hours, and then the concentrations of the TGF-β cytokine in the cancer cell culture media were analyzed by ELISA technique using a TGF-β detection ELISA kit. The concentration of the extracellularly released TGF-β cytokine was determined by measuring the absorbance with a multiplate reader, and the results were graphed.

pSmad2/3 in Aspc1 cells = test: Western blotting of pSmad2/3 expression level in Aspc1 cells; format: cell-based; details: TGF-β plus candidate peptide, 24 hours, FIG. 7
Protocol: Specifically, in order to analyze the time-dependent expression of phospho-Smad2/3 in cells by Western blotting assay, each of pancreatic cancer cell lines Bxpc3 and Aspc1 was treated with TGF-β cytokine at 50 ng/ml, and then cells obtained at different times were lysed by adding a cell lysis buffer containing a protease inhibitor (Thermo Scientific), and then sampled, thus preparing samples for Western blotting. Each of the samples was electrophoresed on SDS-PAGE gel, transferred to nitrocellulose membranes, and then blocked using skim milk powder. […] Then, the membranes were visualized by chemiluminescence using a Western ECL substrate (Thermo Scientific), and the obtained luminescence images were analyzed with Chemidoc (BioRad).
Specifically, each of the pancreatic cancer cell lines Aspc1, Bxpc3 and Panc1 was seeded in a 6-well plate at a density of 1×10^6 cells/well and cultured for one day. The next day, the cells were treated with TGF-β or TGF-β plus candidate peptide for 24 hours (control: 15% ACN—candidate peptide solvent, DMSO—P144 peptide solvent, P144), and the expression levels of pSmad2/3 and total Smad2/3 were analyzed by the Western blotting method described in Example 2.

With “FCLGPCPYIWCLDTF (P5) [candidate peptide derived from TGF-β, target TGFβRI/II]” the “inhibition of extracellular release of TGF-β cytokine” value (“inhibition … of TGF-β cytokine” below) [1] was “directly inhibited the extracellular release of TGF-β cytokine”.
With “TIVYYVVIKPKVEQ (P14) [candidate peptide derived from TGF-β, target TGFβRII]” the “inhibition … of TGF-β cytokine” value [1] was “directly inhibited the extracellular release of TGF-β cytokine”.
“FCLGPCPYIWCLDTVLSL (P7) [candidate peptide derived from TGF-β, target TGFβRI/II]” was tested, and the “inhibition … of TGF-β cytokine” value [1] was “directly inhibited the extracellular release of TGF-β cytokine”.
“FCLGPCPYIWSLDTVLSL (P6) [candidate peptide derived from TGF-β, target TGFβRI/II]” was tested, and the “inhibition … of TGF-β cytokine” value [1] was “directly inhibited the extracellular release of TGF-β cytokine” and the “inhibition of expression level of pSmad2/3” value (pSmad2/3 in Aspc1 cells) was “best ability to inhibit the expression level of pSmad2/3”.
